Bounds are passed on as bounds.

Consider 68 molecules from US9102670B2, “Pyrido-, pyrazo- and pyrimido-pyrimidine derivatives as mTOR inhibitors” (KuDOS Pharmaceuticals Limited, priority 2006, dated 2015).

The first assay has as its system phosphorylation of Serine 473 in Akt. Nature of the assay: In Vitro Phospho-Ser473 Akt Assay in MDA-MB-468 cells. Format: cell-based. The conditions noted are these: Homo sapiens, MDA-MB-468, read-out: IC50 values against mTOR, phospho-Ser473 Akt assay, MDA-MB-468 cells.
A word on the IC50: it is the midpoint of a concentration-inhibition curve. Take `COc1ccc(-c2ccc3c(N4CCOC[C@@H]4C)nc(N4CCC[C@@H](O)C4)nc3n2)cc1CO` [Example 18bk]: the IC50 is below 100 nM. Same read-out and setting: as for `COc1ccc(-c2ccc3c(N4CCOC[C@@H]4C)nc(N4CCOc5ccccc54)nc3n2)cc1CO` [Example 18bl], the figure is below 300 nM. Consider `COc1ccc(-c2ccc3c(N4CCOC[C@@H]4C)nc(N4CCCCC4CO)nc3n2)cc1CO` (some centres unmarked) [Example 18bm], for which the IC50 was below 100 nM. Consider `COc1ccc(-c2ccc3c(N4CCOC[C@@H]4C)nc(N4CC[C@@H](O)C4)nc3n2)cc1CO` [Example 18bn], for which the IC50 is below 100 nM.

`COC[C@@H](C)Nc1nc(N2CCOC[C@@H]2C)c2ccc(-c3ccc(OC)c(CO)c3)nc2n1` [Example 18bo]: the concentration for half-maximal inhibition (IC50) was below 100 nM.

As to `CCNc1nc(N2CCOC[C@@H]2C)c2ccc(-c3ccc(OC)c(CO)c3)nc2n1` [Example 18bq], the IC50 is below 300 nM. As for `COc1ccc(-c2ccc3c(N4CCOC[C@@H]4C)nc(NC(C)C)nc3n2)cc1CO` [Example 18br], the IC50 is below 100 nM. Same read-out and setting: as for `COc1ccc(-c2ccc3c(N4CCOC[C@@H]4C)nc(NCCF)nc3n2)cc1CO` [Example 18bt], the figure is below 300 nM; as for `COc1ccc(-c2ccc3c(N4CCOC[C@@H]4C)nc(N[C@H](C)CO)nc3n2)cc1CO` [Example 18bw], below 100 nM; as for `COc1ccc(-c2ccc3c(N4CCOC[C@@H]4C)nc(N[C@@H](C)CO)nc3n2)cc1CO` [Example 18bx], below 300 nM.

For the molecule `COc1ccc(-c2ccc3c(N4CCOC[C@@H]4C)nc(NCC(F)F)nc3n2)cc1CO` [Example 18bz], the IC50 was below 300 nM. Still for that read-out and setting: as for `COc1ccc(-c2ccc3c(N4CCOC[C@@H]4C)nc(N4CCCCC4)nc3n2)cc1CO` [Example 18c], the figure is below 100 nM; as for `COc1ccc(-c2ccc3c(N4CCOC[C@@H]4C)nc(N4CCNCC4)nc3n2)cc1CO` [Example 18ca], below 300 nM; as for `COc1ccc(-c2ccc3c(N4CCOC[C@@H]4C)nc(NC(C)(C)CO)nc3n2)cc1CO` [Example 18cc], below 100 nM. The same measure, in the same setting: in the case of `COc1ccc(-c2ccc3c(N4CCOC[C@@H]4C)nc(NC(CO)CO)nc3n2)cc1CO` [Example 18cd] it was below 300 nM. The same measure, in the same setting: in the case of `COc1ccc(-c2ccc3c(N4CCOC[C@@H]4C)nc(N4CCNC(=O)C4)nc3n2)cc1CO` [Example 18cf] it was below 100 nM; in that of `COc1ccc(-c2ccc3c(N4CCOC[C@@H]4C)nc(N4CCN(C)CC4)nc3n2)cc1CO` [Example 18cg], below 300 nM. Take `COc1ccc(-c2ccc3c(N4CCOC[C@@H]4C)nc(N4CCSCC4)nc3n2)cc1CO` [Example 18ch]: the IC50 is below 100 nM.

With `COCCN(CCOC)c1nc(N2CCOC[C@@H]2C)c2ccc(-c3ccc(OC)c(CO)c3)nc2n1` [Example 18cj], the IC50 was below 100 nM.

For the molecule `COc1ccc(-c2ccc3c(N4CCOC[C@@H]4C)nc(N(CCO)CCO)nc3n2)cc1CO` [Example 18ck], the IC50 is below 100 nM. Same read-out and setting: in the case of `COc1ccc(-c2ccc3c(N4CCOC[C@@H]4C)nc(N4CCC[C@@H]4CO)nc3n2)cc1CO` [Example 18cm] it was below 100 nM. Still for that read-out and setting: as for `COc1ccc(-c2ccc3c(N4CCOC[C@@H]4C)nc(-n4ccnc4C)nc3n2)cc1CO` [Example 18cn], the figure is below 300 nM; as for `COc1ccc(-c2ccc3c(N4CCOC[C@@H]4C)nc(N4CCNC(=O)C4C)nc3n2)cc1CO` (some centres unmarked) [Example 18co], below 100 nM; as for `COc1ccc(-c2ccc3c(N4CCOC[C@@H]4C)nc(N(C)CCO)nc3n2)cc1CO` [Example 18cr], below 100 nM. The same measure, in the same setting: as for `COc1ccc(-c2ccc3c(N4CCOC[C@@H]4C)nc(N(CCO)C(C)C)nc3n2)cc1CO` [Example 18cs], the figure is below 100 nM; as for `COCCOc1nc(N2CCOC[C@@H]2C)c2ccc(-c3ccc(OC)c(CO)c3)nc2n1` [Example 18cx], below 300 nM; as for `COc1ccc(-c2ccc3c(N4CCOC[C@@H]4C)nc(N4CCCCCC4)nc3n2)cc1CO` [Example 18d], below 100 nM. Take `CNCCOc1nc(N2CCOC[C@@H]2C)c2ccc(-c3ccc(OC)c(CO)c3)nc2n1` [Example 18db]: the IC50 is below 100 nM.

With `COc1ccc(-c2ccc3c(N4CCOC[C@@H]4C)nc(N4CCCCO4)nc3n2)cc1CO` [Example 18dd], the IC50 was below 300 nM. For the molecule `C[C@@H]1CN(c2nc(N3CCOC[C@@H]3C)c3ccc(-c4ccc(Cl)cc4)nc3n2)C[C@H](C)O1` [Example 18dh], the concentration for half-maximal inhibition (IC50) is below 300 nM. Still for that read-out and setting: in the case of `C[C@H]1COCCN1c1nc(N2CCOCC2)nc2nc(-c3ccc(Cl)cc3)ccc12` [Example 18di] it was below 300 nM; in that of `COc1ccc(-c2ccc3c(N4CCOC[C@@H]4C)nc(N4CCCCC(N)C4)nc3n2)cc1CO` (some centres unmarked) [Example 18e], below 300 nM.

Consider `COc1ccc(-c2ccc3c(N4CCOC[C@@H]4C)nc(N4CCC(c5cccc(O)c5)CC4)nc3n2)cc1CO` [Example 18f], for which the IC50 is below 100 nM. On the same count and under the same terms, as for `COc1ccc(-c2ccc3c(N4CCOC[C@@H]4C)nc(N4CCC(CCO)CC4)nc3n2)cc1CO` [Example 18g], the figure is below 100 nM; as for `COc1ccc(-c2ccc3c(N4CCOC[C@@H]4C)nc(N4CCCC(C(F)(F)F)C4)nc3n2)cc1CO` (some centres unmarked) [Example 18h], below 300 nM; as for `COc1ccc(-c2ccc3c(N4CCOC[C@@H]4C)nc(N4CCCC(C)C4)nc3n2)cc1CO` (some centres unmarked) [Example 18i], below 100 nM. Still for that read-out and setting: in the case of `COc1ccc(-c2ccc3c(N4CCOC[C@@H]4C)nc(N4CCCC(O)C4)nc3n2)cc1CO` (some centres unmarked) [Example 18k] it was below 100 nM. On the same count and under the same terms, in the case of `COc1ccc(-c2ccc3c(N4CCOC[C@@H]4C)nc(Nc4ccccc4)nc3n2)cc1CO` [Example 18m] it was below 100 nM; in that of `COc1ccc(-c2ccc3c(N4CCOC[C@@H]4C)nc(Nc4ccccn4)nc3n2)cc1CO` [Example 18p], below 300 nM.

As to `COc1ccc(-c2ccc3c(N4CCOC[C@@H]4C)nc(N4CCCC4)nc3n2)cc1CO` [Example 18q], the IC50 is below 100 nM. Consider `CCOC(=O)C1CCCN(c2nc(N3CCOC[C@@H]3C)c3ccc(-c4ccc(OC)c(CO)c4)nc3n2)C1` (some centres unmarked) [Example 18r], for which the IC50 is below 100 nM. Still for that read-out and setting: in the case of `COc1ccc(-c2ccc3c(N4CCOC[C@@H]4C)nc(N4CCC(CN)CC4)nc3n2)cc1CO` [Example 18s] it was below 100 nM.

`COc1ccc(-c2ccc3c(N4CCOC[C@@H]4C)nc(N4CCC(C)CC4)nc3n2)cc1CO` [Example 18t]: the 50% inhibitory concentration (IC50) is below 100 nM.

Regarding `CCOC(=O)C1CCN(c2nc(N3CCOC[C@@H]3C)c3ccc(-c4ccc(OC)c(CO)c4)nc3n2)CC1` [Example 18u], the IC50 was below 100 nM. Same read-out and setting: as for `COc1ccc(-c2ccc3c(N4CCOC[C@@H]4C)nc(N4CCC(C(N)=O)CC4)nc3n2)cc1CO` [Example 18v], the figure is below 100 nM. Regarding `COc1ccc(C(=O)C2CCN(c3nc(N4CCOC[C@@H]4C)c4ccc(-c5ccc(OC)c(CO)c5)nc4n3)CC2)cc1` [Example 18w], the IC50 is below 300 nM. As to `COc1ccc(-c2ccc3c(N4CCOC[C@@H]4C)nc(N4CCC(CO)CC4)nc3n2)cc1CO` [Example 18x], the IC50 is below 100 nM. The same measure, in the same setting: in the case of `COc1ccc(-c2ccc3c(N4CCOC[C@@H]4C)nc(N4CCCC(CO)C4)nc3n2)cc1CO` (some centres unmarked) [Example 18y] it was below 100 nM; in that of `COc1ccc(-c2ccc3c(N4CCOC[C@@H]4C)nc(-c4cccc(C=O)c4)nc3n2)cc1CO` [Example 19b], below 300 nM.

As to `COc1ccc(-c2ccc3c(N4CCOC[C@@H]4C)nc(-c4cccc(CO)c4)nc3n2)cc1CO` [Example 19c], the IC50 is below 300 nM. As to `COc1ccc(-c2ccc3c(N4CCOC[C@@H]4C)nc(-c4cccnc4)nc3n2)cc1CO` [Example 19j], the IC50 was below 100 nM.

The assay is the same for the next values; noted with them: Homo sapiens, MDA-MB-468, read-out: IC50 values against mTOR, phospho-Ser473 Akt assay, MDA-MB-468 cells, upper bound.
With `CNc1nc(N2CCOC[C@@H]2C)c2ccc(-c3ccc(OC)c(CO)c3)nc2n1` [Example 18bp], the IC50 is below 1000 nM. The same measure, in the same setting: as for `COc1ccc(-c2ccc3c(N4CCOC[C@@H]4C)nc(NCCO)nc3n2)cc1CO` [Example 18bs], the figure is below 1000 nM. Still for that read-out and setting: in the case of `CNCCNc1nc(N2CCOC[C@@H]2C)c2ccc(-c3ccc(OC)c(CO)c3)nc2n1` [Example 18bv] it was below 1000 nM; in that of `COCCNc1nc(N2CCOC[C@@H]2C)c2ccc(-c3ccc(OC)c(CO)c3)nc2n1` [Example 18by], below 1000 nM; in that of `COc1ccc(-c2ccc3c(N4CCOC[C@@H]4C)nc(NCCN(C)C)nc3n2)cc1CO` [Example 18cb], below 1000 nM. Turning to `COc1ccc(-c2ccc3c(N4CCOC[C@@H]4C)nc(NC(C)CN(C)C)nc3n2)cc1CO` (some centres unmarked) [Example 18ct], the IC50 is below 1000 nM.

Turning to `CCOc1nc(N2CCOC[C@@H]2C)c2ccc(-c3ccc(OC)c(CO)c3)nc2n1` [Example 18cv], the IC50 was below 1000 nM. With `C[C@H]1CCCCN1c1nc(N2CCOC[C@@H]2C)c2ccc(-c3ccc(Cl)cc3)nc2n1` [Example 18de], the IC50 was below 1000 nM. Turning to `C[C@@H]1CCCCN1c1nc(N2CCOC[C@@H]2C)c2ccc(-c3ccc(Cl)cc3)nc2n1` [Example 18dg], the IC50 is below 1000 nM. Same read-out and setting: as for `C[C@H]1COCCN1c1nc(N2CCC(C(N)=O)CC2)nc2nc(-c3ccc(Cl)cc3)ccc12` [Example 18dj], the figure is below 1000 nM. As to `COc1ccc(-c2ccc3c(N4CCOC[C@@H]4C)nc(N4CCCC(c5ccccc5)C4)nc3n2)cc1CO` (some centres unmarked) [Example 18j], the IC50 was below 1000 nM. The same measure, in the same setting: as for `COc1ccc(-c2ccc3c(N4CCOC[C@@H]4C)nc(Nc4ccncn4)nc3n2)cc1CO` [Example 18n], the figure is below 1000 nM; as for `COc1ccc(-c2ccc3c(N4CCOC[C@@H]4C)nc(Nc4cccnc4)nc3n2)cc1CO` [Example 18o], below 1000 nM. The same measure, in the same setting: as for `COc1ccc(-c2ccc3c(N4CCOC[C@@H]4C)nc(N4CCC(N5CCCCC5)CC4)nc3n2)cc1CO` [Example 18z], the figure is below 1000 nM; as for `COc1ccc(-c2ccc3c(N4CCOC[C@@H]4C)nc(-c4cccc(CN)c4)nc3n2)cc1CO` [Example 19e], below 1000 nM; as for `COC(=O)c1cccc(-c2nc(N3CCOC[C@@H]3C)c3ccc(-c4ccc(OC)c(CO)c4)nc3n2)c1` [Example 19h], below 1000 nM. For `COc1ccc(-c2ccc3c(N4CCOC[C@@H]4C)nc(-c4cccc([N+](=O)[O-])c4)nc3n2)cc1CO` [Example 19i], the IC50 is below 1000 nM.
